From ChEMBL document CHEMBL1134048, “Novel antitumor artemisinin derivatives targeting G1 phase of the cell cycle” (Bioorg Med Chem Lett, 2001) come the findings set out here.

The subject of assay [1] is P388. The assay can be described thus: Percent of cells in sub-G1 phase (apoptotic cells) of cell cycle was determined after 21 hrs of incubation of P388 cells. The assay is classed as functional, Mus musculus.
The test system of assay [2] is P388. The assay can be described thus: In vitro inhibitory concentration required against murine P388 leukemic cells proliferation. It is filed as functional, cell-based. To be noted: Mus musculus.
Assay [3] concerns P388. Put plainly: Percent of cells in G1 phase of cell cycle was determined after 21 hrs of incubation of P388 cells. The assay is classed as functional, Mus musculus.
For another assay, the system named is A549. The assay can be described thus: In vitro inhibitory concentration required against human lung A549 carcinoma cells proliferation. It is filed as functional, cell-based.
Assay [4] has as its system P388. Put plainly: Ability to induce apoptosis after 21 hrs of incubation of P388 cells. It is filed as functional, cell-based. To be noted: Mus musculus.
The test system of assay [5] is P388. Put plainly: Percent of cells in G1 phase of cell cycle, was determined after 21 hrs of incubation of P388 cells. The assay is classed as functional, Mus musculus.
A further assay concerns NIH3T3. Put plainly: In vitro inhibitory concentration required against NIH3T3 cells proliferation. To be noted: Mus musculus. The assay is classed as functional, cell-based.

One may read the IC50 as the concentration that gives 50% inhibition. The low end stands for higher potency, the high end for lower potency. As for `C[C@@H]1CCC2[C@@H](C)[C@@H](O[C@H](C#N)c3ccccc3)O[C@@H]3O[C@]4(C)CCC1[C@@]23OO4` (stereo partly specified), the Apoptosis in the assay with P388 [1] was 45%. The IC50 in the assay on P388 [2] came to 0.048 µM; in the assay with A549, 0.662 µM. Besides, the G1 with P388 [3] was found to be 61%. The Concentration in the assay with P388 [4] is 100 nM.

As to `C[C@@H]1CCC2[C@@H](C)[C@@H](O[C@@H](C#N)c3ccccc3)O[C@@H]3O[C@]4(C)CCC1[C@@]23OO4` (stereo partly specified), the Apoptosis in the assay on P388 [1] was 53%. For the same compound, the IC50 in the assay on P388 [2] is 0.238 µM; in the assay on A549 it was 1.23 µM. The compound further yielded a G1 in the assay with P388 [5] of 67%. This compound also showed a Concentration in the assay with P388 [4] of 500 nM.

As for `CC[C@]1(O)C[C@H]2CN(CCc3c([nH]c4ccccc34)[C@@](C(=O)OC)(c3cc4c(cc3OC)N(C=O)[C@H]3[C@@](O)(C(=O)OC)[C@H](OC(C)=O)[C@]5(CC)C=CCN6CC[C@]43[C@@H]65)C2)C1` [VINCRISTINE], the IC50 with P388 [2] was 0.002 µM; in the assay on A549, 0.018 µM.

Turning to `C[C@@H]1CCC2[C@@H](C)[C@@H](O[C@@H](C#N)c3ccc(Br)cc3)O[C@@H]3O[C@]4(C)CCC1[C@@]23OO4` (stereo partly specified), the Apoptosis in the assay on P388 [1] turned out to be 49%. In addition, the concentration for half-maximal inhibition (IC50) was 0.012 µM in the assay with P388 [2], 0.047 µM in the assay with A549 and 3050 µM with NIH3T3. In addition, the G1 in the assay with P388 [5] amounted to 62%. Further, in the assay on P388 [4], the Concentration turned out to be 25 nM.

For the compound `C[C@@H]1CCC2[C@@H](C)[C@@H](O[C@H](C#N)c3ccc(Br)cc3)O[C@@H]3O[C@]4(C)CCC1[C@@]23OO4` (stereo partly specified), the Apoptosis in the assay on P388 [1] is reported as 51%. Further, the IC50 with P388 [2] was found to be 0.011 µM; with A549, 0.039 µM; in the assay with NIH3T3, 5120 µM. This compound displayed a G1 in the assay on P388 [5] of 63%. In the assay on P388 [4], this compound yielded a Concentration of 25 nM.

Consider `C[C@@H]1CCC2[C@@H](C)[C@@H](OC(C#N)c3ccc(Br)cc3)O[C@@H]3O[C@]4(C)CCC1[C@@]23O4` (stereo partly specified), for which the IC50 amounted to 24.2 µM with P388 [2] and 42 µM in the assay on A549.

Take `C[C@@H]1CCC2[C@@H](C)[C@@H](OCC#N)O[C@@H]3O[C@]4(C)CCC1[C@@]23OO4` (stereo partly specified): the Apoptosis with P388 [1] came out at 7%. In addition, the figures for the IC50 with P388 [2] and in the assay on A549 were 1.85 µM and 79.4 µM, respectively. The compound also had a G1 with P388 [5] of 65%. This compound also yielded a Concentration with P388 [4] of 10000 nM.
